Measured values reported in ChEMBL document CHEMBL5331051, “Cationic, amphipathic small molecules based on a triazine-piperazine-triazine scaffold as a new class of antimicrobial agents” (Eur J Med Chem, 2022).
In brackets after ≈: the same amount, converted by molar mass.

Experiments:
Staphylococcus aureus [1] = experiment: Antibacterial activity against Staphylococcus aureus KCTC 1621 strain assessed as bacterial growth inhibition measured at 18 to 24 hrs by microdilution assay; format: functional; conditions: time 18-24 hrs
Erythrocyte = experiment: Hemolytic activity in sheep RBC assessed as minimal hemolytic concentration causing 10% hemolysis incubated for 1 hr by ELISA; format: toxicity, cell-based, Ovis aries
Escherichia coli = experiment: Antibacterial activity against Escherichia coli KCTC 1682 strain assessed as bacterial growth inhibition measured at 18 to 24 hrs by microdilution assay; format: functional; conditions: time 18-24 hrs
Pseudomonas aeruginosa [2] = experiment: Antibacterial activity against Pseudomonas aeruginosa KCTC 1637 strain assessed as bacterial growth inhibition measured at 18 to 24 hrs by microdilution assay; format: functional; conditions: time 18-24 hrs
[3] = test system: Staphylococcus epidermidis; experiment: Antibacterial activity against Staphylococcus epidermidis KCTC 1917 strain assessed as bacterial growth inhibition measured at 18 to 24 hrs by microdilution assay; format: functional; conditions: time 18-24 hrs
Staphylococcus aureus [4] = experiment: Antibacterial activity against methicillin-resistant Staphylococcus aureus CCARM 3089 strain assessed as bacterial growth inhibition measured at 18 to 24 hrs by microdilution assay; format: functional; conditions: time 18-24 hrs
Enterococcus faecium = experiment: Antibacterial activity against vancomycin-resistant Enterococcus faecium ATCC 51559 strain assessed as bacterial growth inhibition measured at 18 to 24 hrs by microdilution assay; format: functional; conditions: time 18-24 hrs
Staphylococcus aureus [5] = experiment: Antibacterial activity against methicillin-resistant Staphylococcus aureus CCARM 3095 strain assessed as bacterial growth inhibition measured at 18 to 24 hrs by microdilution assay; format: functional; conditions: time 18-24 hrs
Pseudomonas aeruginosa [6] = experiment: Antibacterial activity against multidrug-resistant Pseudomonas aeruginosa CCARM 2109 strain assessed as bacterial growth inhibition measured at 18 to 24 hrs by microdilution assay; format: functional; conditions: time 18-24 hrs
Pseudomonas aeruginosa [7] = experiment: Antibacterial activity against multidrug-resistant Pseudomonas aeruginosa CCARM 2095 strain assessed as bacterial growth inhibition measured at 18 to 24 hrs by microdilution assay; format: functional; conditions: time 18-24 hrs
Staphylococcus aureus [8] = experiment: Antibacterial activity against methicillin-resistant Staphylococcus aureus CCARM 3089 strain assessed as bacterial growth inhibition by checkerboard assay; format: functional
Staphylococcus aureus [9] = experiment: Antibacterial activity against methicillin-resistant Staphylococcus aureus CCARM 3090 strain assessed as bacterial growth inhibition measured at 18 to 24 hrs by microdilution assay; format: functional; conditions: time 18-24 hrs
Pseudomonas aeruginosa [10] = experiment: Antibiofilm activity against multidrug-resistant Pseudomonas aeruginosa assessed as inhibition of biofilm formation; format: functional
Pseudomonas aeruginosa [11] = experiment: Antibiofilm activity against multidrug-resistant Pseudomonas aeruginosa assessed as biofilm eradication; format: functional

Compound	MIC (Staphylococcus aureus [1]) [µM]	MIC (Escherichia coli) [µM]	MIC (Pseudomonas aeruginosa [2]) [µM]	MIC [3] [µM]	MHC (Erythrocyte) [µM]	further results
NCCCCNc1nc(NCCCCN)nc(N2CCN(c3nc(NCCCCN)nc(NCCCCN)n3)C(Cc3ccccc3)C2)n1 (stereo not drawn)	23.5 (≈ 16 µg/mL)	47 (≈ 31.9 µg/mL)	47 (≈ 31.9 µg/mL)	23.5 (≈ 16 µg/mL)	> 376.3	–
NCCCNc1nc(NCCCN)nc(N2CCN(c3nc(NCCCN)nc(NCCCN)n3)C(Cc3ccccc3)C2)n1 (stereo not drawn)	25.6 (≈ 15.9 µg/mL)	51.2 (≈ 31.9 µg/mL)	51.2 (≈ 31.9 µg/mL)	25.6 (≈ 15.9 µg/mL)	> 409.6	–
N=C(N)NCCCN(CCCNC(=N)N)c1nc(NCc2ccccc2)nc(N2CC(Cc3ccccc3)N(c3nc(NCc4ccc5ccccc5c4)nc(N(CCCNC(=N)N)CCCNC(=N)N)n3)CC2Cc2ccccc2)n1 (stereo not drawn)	15.7 (≈ 17.4 µg/mL)	31.4 (≈ 34.9 µg/mL)	7.8 (≈ 8.67 µg/mL)	3.9 (≈ 4.33 µg/mL)	56.8	–
N=C(N)NCCNc1nc(NCCNC(=N)N)nc(N2CCN(c3nc(NCCNC(=N)N)nc(NCCNC(=N)N)n3)C(Cc3ccccc3)C2)n1 (stereo not drawn)	21.8 (≈ 16 µg/mL)	21.8 (≈ 16 µg/mL)	21.8 (≈ 16 µg/mL)	21.8 (≈ 16 µg/mL)	> 348.2	–
COLISTIN	–	–	–	–	–	MIC (Staphylococcus aureus [4]): 27.7 µM; MIC (Enterococcus faecium): 13.8 µM; MIC (Staphylococcus aureus [5]): 13.8 µM; MIC (Pseudomonas aeruginosa [6]): 27.7 µM; MIC (Pseudomonas aeruginosa [7]): 55.4 µM; MIC (Staphylococcus aureus [8]): 512 µg/mL; MIC (Staphylococcus aureus [9]): 27.7 µM
N=C(N)NCCCCNc1nc(NCCCCNC(=N)N)nc(N2CC(Cc3ccccc3)N(c3nc(NCCCCNC(=N)N)nc(NCCCCNC(=N)N)n3)CC2Cc2ccccc2)n1 (stereo not drawn)	8.5 (≈ 7.97 µg/mL)	8.5 (≈ 7.97 µg/mL)	8.5 (≈ 7.97 µg/mL)	8.5 (≈ 7.97 µg/mL)	> 273.2	MBEC50 (Pseudomonas aeruginosa [10]): 17.1 µM; MBEC90 (Pseudomonas aeruginosa [10]): 68.3 µM; MBIC (Pseudomonas aeruginosa [10]): 34.1 µM; MBIC50 (Pseudomonas aeruginosa [10]): 8.5 µM; MBEC50 (Pseudomonas aeruginosa [11]): 17.1 µM; MBEC90 (Pseudomonas aeruginosa [11]): 68.3 µM

Further lines, with some results ahead:

MIC (Staphylococcus aureus [1]) [µM]	MIC (Escherichia coli) [µM]	MIC (Pseudomonas aeruginosa [2]) [µM]	MIC [3] [µM]	Compound	MHC (Erythrocyte) [µM]	further results
4.7 (≈ 4.43 µg/mL)	9.4 (≈ 8.87 µg/mL)	18.7 (≈ 17.6 µg/mL)	4.7 (≈ 4.43 µg/mL)	NCCCN(CCCN)c1nc(NCc2ccccc2)nc(N2CC(Cc3ccccc3)N(c3nc(NCc4ccc5ccccc5c4)nc(N(CCCN)CCCN)n3)CC2Cc2ccccc2)n1 (stereo not drawn)	189.5	–
5 (≈ 3.99 µg/mL)	40 (≈ 31.9 µg/mL)	20 (≈ 15.9 µg/mL)	5 (≈ 3.99 µg/mL)	NCCN(CCN)c1nc(NCc2ccccc2)nc(N2CCN(c3nc(NCc4ccc5ccccc5c4)nc(N(CCN)CCN)n3)C(Cc3ccccc3)C2)n1 (stereo not drawn)	> 320	–
11.1 (≈ 8 µg/mL)	22.2 (≈ 16 µg/mL)	11.1 (≈ 8 µg/mL)	5.6 (≈ 4.04 µg/mL)	N=C(N)NCCCCNc1nc(NCCCCN)nc(N2CCN(c3nc(NCCCCN)nc(NCCCCN)n3)CC2Cc2ccccc2)n1 (stereo not drawn)	> 355.8	–
4.1 (≈ 3.96 µg/mL)	16.6 (≈ 16 µg/mL)	16.6 (≈ 16 µg/mL)	4.1 (≈ 3.96 µg/mL)	N=C(N)NCCN(CCNC(=N)N)c1nc(NCc2ccccc2)nc(N2CCN(c3nc(NCc4ccc5ccccc5c4)nc(N(CCNC(=N)N)CCNC(=N)N)n3)C(Cc3ccccc3)C2)n1 (stereo not drawn)	37.3	–
12 (≈ 7.98 µg/mL)	24 (≈ 16 µg/mL)	24 (≈ 16 µg/mL)	12 (≈ 7.98 µg/mL)	N=C(N)NCCCNc1nc(NCCCN)nc(N2CCN(c3nc(NCCCN)nc(NCCCN)n3)CC2Cc2ccccc2)n1 (stereo not drawn)	> 384	–
